pIC50: −log10 of the molar value.
Biological target: T1, factor B (Homo sapiens, UniProt P00751)
Test: assay of Biological Example 2.7
Type: binding
Design: made in house; host or cells: drosophila cells
Settings: assay of Biological Example 2.7 (Table 2)
Target sequence in this assay (P00751 26-764): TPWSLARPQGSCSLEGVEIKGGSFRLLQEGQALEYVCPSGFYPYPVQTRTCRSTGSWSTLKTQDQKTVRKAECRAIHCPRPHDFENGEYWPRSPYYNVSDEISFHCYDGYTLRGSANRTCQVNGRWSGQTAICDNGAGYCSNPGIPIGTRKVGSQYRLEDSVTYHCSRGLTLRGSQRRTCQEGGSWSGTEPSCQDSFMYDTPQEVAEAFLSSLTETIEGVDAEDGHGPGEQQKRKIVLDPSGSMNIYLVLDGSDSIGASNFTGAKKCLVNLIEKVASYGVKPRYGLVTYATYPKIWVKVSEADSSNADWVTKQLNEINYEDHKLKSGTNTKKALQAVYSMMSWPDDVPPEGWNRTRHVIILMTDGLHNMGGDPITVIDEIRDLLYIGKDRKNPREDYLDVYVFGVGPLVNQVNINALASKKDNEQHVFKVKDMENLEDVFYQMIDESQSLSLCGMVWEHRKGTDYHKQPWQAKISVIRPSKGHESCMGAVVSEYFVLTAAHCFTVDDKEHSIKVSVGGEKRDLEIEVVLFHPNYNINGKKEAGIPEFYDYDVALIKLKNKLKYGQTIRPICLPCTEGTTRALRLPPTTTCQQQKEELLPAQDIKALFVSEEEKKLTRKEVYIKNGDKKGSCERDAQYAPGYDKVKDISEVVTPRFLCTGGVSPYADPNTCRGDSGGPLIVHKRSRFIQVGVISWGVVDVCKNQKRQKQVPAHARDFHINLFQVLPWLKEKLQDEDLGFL

`COc1cc(C)c2[nH]ccc2c1C(N)(c1nc2cc(C#N)ccc2[nH]1)C(F)(F)F` (racemic) [36-E b) (−), (−)-2-(1-amino-2,2,2-trifluoro-1-(5-methoxy-7-methyl-1H-indol-4-yl)ethyl)-1H-benzo[d]imidazole-5-carbonitrile] was tested. Which pIC50 did it give?
The pIC50 was 7.52.

With `[2H]C([2H])([2H])OC(c1nc2cc(C#N)ccc2[nH]1)(c1c(OC)cc(C)c2[nH]ccc12)C(F)(F)F` (single isomer, unassigned; (+)) [137-J b) (+), (+)-2-(2,2,2-trifluoro-1-(^2H3)-methoxy-1-(5-methoxy-7-methyl-1H-indol-4-yl)ethyl)-1H-benzo[d]imidazole-5-carbonitrile] as the compound, how does the pIC50 read?
The pIC50 was 5.89.

How did the pIC50 turn out when `COc1cc(C)c2[nH]ccc2c1C(C)(OC)c1nc2cc(C#N)ccc2o1` (single isomer, unassigned; (+)) [137-K b) (+), (+)-2-(1-methoxy-1-(5-methoxy-7-methyl-1H-indol-4-yl)ethyl)benzo[d]oxazole-5-carbonitrile] was run?
The pIC50 was 6.09.

How did the pIC50 turn out when `COC(C)(c1nc2cc(C#N)ccc2o1)c1c(C2CC2)cc(C)c2[nH]ccc12` (single isomer, unassigned; (+)) [137-L b) (+), (+)-2-(1-(5-cyclopropyl-7-methyl-1H-indol-4-yl)-1-methoxyethyl)benzo[d]oxazole-5-carbonitrile] was run?
The pIC50 was 6.14.

`COc1cc(C)c2[nH]ccc2c1C(C)(O)c1nc2cc(C#N)ccc2o1` (single isomer, unassigned; (+)) [137-N b) (+), (+)-2-(1-hydroxy-1-(5-methoxy-7-methyl-1H-indol-4-yl)ethyl)benzo[d]oxazole-5-carbonitrile] was tested. Which pIC50 did it give?
The pIC50 was 7.40.

How did the pIC50 turn out when `COc1cc(C)c2[nH]cc3c2c1C(c1nc2cc(C#N)ccc2[nH]1)(C(F)(F)F)NC3` (single isomer, unassigned; (+)) [Example 36-F, (+)-2-(6-methoxy-8-methyl-5-(trifluoromethyl)-1,3,4,5-tetrahydropyrrolo[4,3,2-de]isoquinolin-5-yl)-1H-benzo[d]imidazole-5-carbonitrile] was run?
Its pIC50 is 7.92.

`COc1cc(C)c2[nH]ccc2c1C(CC(=O)O)c1nc2cc(C#N)ccc2o1` (single isomer, unassigned; (+)) [Example 148-D, (+)-3-(5-cyanobenzo[d]oxazol-2-yl)-3-(5-methoxy-7-methyl-1H-indol-4-yl)propanoic acid] was tested. Which pIC50 did it give?
The pIC50 was 6.47.

With `COc1cc(C)c2[nH]ccc2c1C(CCC(=O)O)c1nc2cc(C#N)ccc2o1` (single isomer, unassigned; (+)) [Example 149-C, (+)-4-(5-cyanobenzo[d]oxazol-2-yl)-4-(5-methoxy-7-methyl-1H-indol-4-yl)butanoic acid] as the compound, how does the pIC50 read?
The pIC50 was 6.80.

`COc1cc(C)c2[nH]ccc2c1C(C)(OC)c1nc2cc(C#N)ccc2[nH]1` (single isomer, unassigned; (-)) [27-B b) (−), (−)-2-(1-methoxy-1-(5-methoxy-7-methyl-1H-indol-4-yl)ethyl)-1H-benzo[d]imidazole-5-carbonitrile] was tested. Which pIC50 did it give?
Its pIC50 is 8.40.

`COc1cc(C)c2[nH]ccc2c1C(C)(N)c1nc2cc(C#N)ccc2[nH]1` (single isomer, unassigned; (-)) [41-B b) (−), (−)-2-(1-amino-1-(5-methoxy-7-methyl-1H-indol-4-yl)ethyl)-1H-benzo[d]imidazole-5-carbonitrile] was tested. Which pIC50 did it give?
The pIC50 was 8.00.

`Cc1cc(Br)c(C(C)(N)c2nc3cc(C#N)ccc3[nH]2)c2cc[nH]c12` (single isomer, unassigned; (-)) [137-A b) (−), (−)-2-(1-amino-1-(5-bromo-7-methyl-1H-indol-4-yl)ethyl)-1H-benzo[d]imidazole-5-carbonitrile] was tested. Which pIC50 did it give?
Its pIC50 is 7.70.

With `[2H]C([2H])([2H])OC(C)(c1nc2cc(C#N)ccc2[nH]1)c1c(OC)cc(C)c2[nH]ccc12` (single isomer, unassigned; (-)) [137-I b) (−), (−)-2-(1-(^2H3)methoxy-1-(5-methoxy-7-methyl-1H-indol-4-yl)ethyl)-1H-benzo[d]imidazole-5-carbonitrile] as the compound, how does the pIC50 read?
The pIC50 was 8.00.

How did the pIC50 turn out when `[2H]C([2H])([2H])OC(c1nc2cc(C#N)ccc2[nH]1)(c1c(OC)cc(C)c2[nH]ccc12)C(F)(F)F` (single isomer, unassigned; (-)) [137-J b) (−), (−)-2-(2,2,2-trifluoro-1-(^2H3)-methoxy-1-(5-methoxy-7-methyl-1H-indol-4-yl)ethyl)-1H-benzo[d]imidazole-5-carbonitrile] was run?
The pIC50 was 8.00.

`COc1cc(C)c2[nH]ccc2c1C(C)(OC)c1nc2cc(C#N)ccc2o1` (single isomer, unassigned; (-)) [137-K b) (−), (−)-2-(1-methoxy-1-(5-methoxy-7-methyl-1H-indol-4-yl)ethyl)benzo[d]oxazole-5-carbonitrile] was tested. Which pIC50 did it give?
The pIC50 was 6.70.

With `COC(C)(c1nc2cc(C#N)ccc2o1)c1c(C2CC2)cc(C)c2[nH]ccc12` (single isomer, unassigned; (-)) [137-L b) (−), (−)-2-(1-(5-cyclopropyl-7-methyl-1H-indol-4-yl)-1-methoxyethyl)benzo[d]oxazole-5-carbonitrile] as the compound, how does the pIC50 read?
The pIC50 was 6.57.

How did the pIC50 turn out when `COc1cc(C)c2[nH]ccc2c1C(C)(O)c1nc2cc(C#N)ccc2o1` (single isomer, unassigned; (-)) [137-N b) (−), (−)-2-(1-hydroxy-1-(5-methoxy-7-methyl-1H-indol-4-yl)ethyl)benzo[d]oxazole-5-carbonitrile] was run?
The pIC50 was 8.22.

How did the pIC50 turn out when `COc1cc(C)c2[nH]ccc2c1C(CC(=O)O)c1nc2cc(C#N)ccc2o1` (single isomer, unassigned; (-)) [Example 148-E, (−)-3-(5-cyanobenzo[d]oxazol-2-yl)-3-(5-methoxy-7-methyl-1H-indol-4-yl)propanoic acid] was run?
The pIC50 was 6.38.

With `COc1cc(C)c2[nH]ccc2c1C(CCC(=O)O)c1nc2cc(C#N)ccc2o1` (single isomer, unassigned; (-)) [Example 149-D, (−)-4-(5-cyanobenzo[d]oxazol-2-yl)-4-(5-methoxy-7-methyl-1H-indol-4-yl)butanoic acid] as the compound, how does the pIC50 read?
Its pIC50 is 6.92.

`COc1cc(C)c2[nH]ccc2c1C(c1nc2cc(C#N)ccc2[nH]1)C(C)C(=O)O` (single isomer, unassigned; diastereomer a) [Example 147-D, (±)-3-(5-Cyano-1H-benzo[d]imidazol-2-yl)-3-(5-methoxy-7-methyl-1H-indol-4-yl)-2-methylpropanoic acid (Diastereomer A)] was tested. Which pIC50 did it give?
Its pIC50 is 6.10.

How did the pIC50 turn out when `COc1cc(C)c2[nH]ccc2c1C(c1nc2cc(C#N)ccc2[nH]1)C(C)C(=O)O` (single isomer, unassigned; diastereomer b) [Example 147-E, (±)-3-(5-Cyano-1H-benzo[d]imidazol-2-yl)-3-(5-methoxy-7-methyl-1H-indol-4-yl)-2-methylpropanoic acid (Diastereomer B)] was run?
Its pIC50 is 6.80.

`COc1cc(C)c2[nH]ccc2c1C(c1nc2cc(C#N)ccc2[nH]1)C(C)CO` (single isomer, unassigned; diastereomer b) [Example 147-F, (±)-2-(3-hydroxy-1-(5-methoxy-7-methyl-1H-indol-4-yl)-2-methylpropyl)-1H-benzo[d]imidazole-5-carbonitrile (Diastereomer B)] was tested. Which pIC50 did it give?
Its pIC50 is 7.00.

With `COc1cc(C)c2[nH]ccc2c1C(O)c1nc2cc(C#N)ccc2s1` (centres unmarked) [Example 137-C] as the compound, how does the pIC50 read?
The pIC50 was 7.21.

With `COc1cc(C)c2[nH]ccc2c1C(C)(N)c1nc2cc(C#N)ccc2s1` (centres unmarked) [Example 137-D] as the compound, how does the pIC50 read?
The pIC50 was 6.77.

`COc1cc(C)c2[nH]ccc2c1C(N)c1nc2cc(C#N)ccc2s1` (centres unmarked) [Example 137-E] was tested. Which pIC50 did it give?
Its pIC50 is 6.57.

With `COc1c(F)c(C)c2[nH]ccc2c1C(C)(N)c1nc2cc(C#N)ccc2[nH]1` (centres unmarked) [Example 137-G] as the compound, how does the pIC50 read?
Its pIC50 is 7.54.

With `COc1c(F)c(C)c2[nH]ccc2c1C(C)(OC)c1nc2cc(C#N)ccc2[nH]1` (centres unmarked) [Example 137-H] as the compound, how does the pIC50 read?
Its pIC50 is 7.51.

`Cc1cc(C)c2[nH]ccc2c1C(O)c1nc2ccc(C#N)cc2s1` (centres unmarked) [Example 137-O] was tested. Which pIC50 did it give?
The pIC50 was 5.50.

How did the pIC50 turn out when `Cc1cc(C)c2[nH]ccc2c1C(O)c1cc2cc(C#N)ccc2[nH]1` (centres unmarked) [Example 137-P] was run?
The pIC50 was 6.01.

`Cc1cc(C)c2[nH]ccc2c1C(O)c1cc2cc(C#N)ccc2o1` (centres unmarked) [Example 137-Q] was tested. Which pIC50 did it give?
The pIC50 was 5.87.

`Cc1cc(C)c2[nH]ccc2c1C(O)c1nc2cc(C#N)ccc2s1` (centres unmarked) [Example 137-R] was tested. Which pIC50 did it give?
Its pIC50 is 6.10.

`COc1cc(C)c2[nH]ccc2c1C(C)(O)c1nc2ccc(C#N)cc2s1` (centres unmarked) [Example 137-S] was tested. Which pIC50 did it give?
The pIC50 was 6.96.

How did the pIC50 turn out when `COc1cc(C)c2[nH]ccc2c1C(C)(O)c1cc2ccc(C#N)cc2[nH]1` (centres unmarked) [Example 137-T] was run?
Its pIC50 is 7.30.

`COc1cc(C)c2[nH]ccc2c1C(C)(O)c1cc2cc(C#N)ccc2[nH]1` (centres unmarked) [Example 137-U] was tested. Which pIC50 did it give?
The pIC50 was 7.46.

With `COc1cc(C)c2[nH]ccc2c1C(C)(O)c1cc2cc(C#N)ccc2o1` (centres unmarked) [Example 137-V] as the compound, how does the pIC50 read?
The pIC50 was 7.64.

`COc1cc(C)c2[nH]ccc2c1C(C)(OC)c1nc2ccc(C#N)cc2s1` (centres unmarked) [Example 137-W] was tested. Which pIC50 did it give?
The pIC50 was 5.28.

How did the pIC50 turn out when `COc1cc(C)c2[nH]ccc2c1C(C)(O)c1cc2ccc(C#N)cc2o1` (centres unmarked) [Example 137-X] was run?
The pIC50 was 6.72.

With `COc1cc(C)c2[nH]ccc2c1C(C)(OC)c1cc2ccc(C#N)cc2o1` (centres unmarked) [Example 137-Y] as the compound, how does the pIC50 read?
The pIC50 was 6.09.

With `COc1cc(C)c2[nH]ccc2c1C(C)(OC)c1cc2cc(C#N)ccc2o1` (centres unmarked) [Example 137-Z] as the compound, how does the pIC50 read?
The pIC50 was 6.28.

Biological target: T1, factor B
Test: factor B inhibition assay of Biological Example 1
Type: biochemical
Design: CVF-Bb complex prepared from purified cobra venom factor (1 μM), recombinant human complement factor B; made in house; host or cells: drosophila cells (factor B); E. coli (factor D used to form the complex)
Settings: IC50 (nM), assay of Biological Example 1 (Table 1)
Target sequence in this assay (P00751 260-764 limits assumed): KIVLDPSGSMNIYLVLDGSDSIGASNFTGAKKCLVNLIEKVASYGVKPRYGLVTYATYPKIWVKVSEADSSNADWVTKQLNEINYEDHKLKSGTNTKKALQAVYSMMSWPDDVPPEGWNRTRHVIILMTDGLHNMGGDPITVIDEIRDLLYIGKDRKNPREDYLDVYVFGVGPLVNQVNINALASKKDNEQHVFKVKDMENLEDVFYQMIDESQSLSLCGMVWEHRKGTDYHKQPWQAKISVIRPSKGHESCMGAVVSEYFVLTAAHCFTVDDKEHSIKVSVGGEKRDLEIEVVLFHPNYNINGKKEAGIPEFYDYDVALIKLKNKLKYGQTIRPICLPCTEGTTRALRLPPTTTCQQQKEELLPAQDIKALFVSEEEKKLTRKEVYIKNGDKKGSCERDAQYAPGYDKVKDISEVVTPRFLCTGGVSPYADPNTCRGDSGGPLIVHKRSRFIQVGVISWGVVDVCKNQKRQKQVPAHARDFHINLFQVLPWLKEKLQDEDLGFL
Target sequence in this assay (Q91132 23-649 partner limits assumed): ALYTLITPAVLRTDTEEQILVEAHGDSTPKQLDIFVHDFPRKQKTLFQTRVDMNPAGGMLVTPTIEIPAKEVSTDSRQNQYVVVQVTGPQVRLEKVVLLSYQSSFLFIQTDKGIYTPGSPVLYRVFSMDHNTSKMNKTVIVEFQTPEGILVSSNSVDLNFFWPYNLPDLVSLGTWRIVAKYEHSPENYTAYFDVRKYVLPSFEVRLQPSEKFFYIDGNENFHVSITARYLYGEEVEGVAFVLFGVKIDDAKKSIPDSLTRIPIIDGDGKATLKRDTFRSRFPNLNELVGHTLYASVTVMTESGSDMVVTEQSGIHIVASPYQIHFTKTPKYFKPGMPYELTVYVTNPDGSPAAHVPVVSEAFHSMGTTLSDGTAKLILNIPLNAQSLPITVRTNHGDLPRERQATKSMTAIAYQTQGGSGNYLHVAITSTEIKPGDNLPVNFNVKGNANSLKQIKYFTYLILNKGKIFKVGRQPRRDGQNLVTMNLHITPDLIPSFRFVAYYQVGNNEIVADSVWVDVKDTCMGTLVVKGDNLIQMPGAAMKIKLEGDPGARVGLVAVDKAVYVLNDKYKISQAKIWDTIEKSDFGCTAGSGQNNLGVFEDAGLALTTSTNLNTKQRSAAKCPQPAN
Target sequence in this assay (Q91132 733-984 partner limits assumed): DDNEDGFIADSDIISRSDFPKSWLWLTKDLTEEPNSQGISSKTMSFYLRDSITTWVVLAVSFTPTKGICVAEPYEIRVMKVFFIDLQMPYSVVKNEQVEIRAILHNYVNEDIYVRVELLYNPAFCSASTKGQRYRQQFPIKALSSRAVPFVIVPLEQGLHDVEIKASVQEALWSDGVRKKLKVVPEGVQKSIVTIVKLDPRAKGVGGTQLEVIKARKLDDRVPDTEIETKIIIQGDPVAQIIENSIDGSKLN
Target sequence in this assay (Q91132 1264-1642 partner limits assumed): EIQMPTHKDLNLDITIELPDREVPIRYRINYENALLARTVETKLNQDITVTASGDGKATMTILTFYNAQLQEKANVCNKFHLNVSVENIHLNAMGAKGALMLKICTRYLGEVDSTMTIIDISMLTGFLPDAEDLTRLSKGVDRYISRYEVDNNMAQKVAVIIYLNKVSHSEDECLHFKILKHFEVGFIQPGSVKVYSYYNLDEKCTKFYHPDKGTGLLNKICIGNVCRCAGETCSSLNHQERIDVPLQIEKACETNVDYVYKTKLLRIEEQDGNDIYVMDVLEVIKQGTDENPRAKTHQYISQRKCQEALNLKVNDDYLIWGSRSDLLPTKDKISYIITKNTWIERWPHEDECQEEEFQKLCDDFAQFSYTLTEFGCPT

Which IC50 does the source give for `COc1cc(C)c2[nH]ccc2c1C(N)(c1nc2cc(C#N)ccc2[nH]1)C(F)(F)F` (racemic) [36-E b) (−), (−)-2-(1-amino-2,2,2-trifluoro-1-(5-methoxy-7-methyl-1H-indol-4-yl)ethyl)-1H-benzo[d]imidazole-5-carbonitrile] here?
Its IC50 is 40 nM.

For `COc1cc(C)c2[nH]ccc2c1C(C)(OC)c1nc2cc(C#N)ccc2[nH]1` (single isomer, unassigned; (-)) [27-B b) (−), (−)-2-(1-methoxy-1-(5-methoxy-7-methyl-1H-indol-4-yl)ethyl)-1H-benzo[d]imidazole-5-carbonitrile], which IC50 is on record?
The IC50 was 3 nM.

With `COc1cc(C)c2[nH]ccc2c1C(C)(N)c1nc2cc(C#N)ccc2[nH]1` (single isomer, unassigned; (-)) [41-B b) (−), (−)-2-(1-amino-1-(5-methoxy-7-methyl-1H-indol-4-yl)ethyl)-1H-benzo[d]imidazole-5-carbonitrile] as the compound, how does the IC50 read?
The IC50 was 9 nM.

— US9056874B2, “Complement pathway modulators and uses thereof” (NOVARTIS AG, priority 2012, dated 2015)
